Test results: patent US6514964B1, “Fused cycloheptane and fused azacycloheptane compounds and their methods of use” (Amgen Inc., priority 1999, dated 2003)

Each compound was assayed on human umbilical cord endothelial cells (HUVEC) (assay: HUVEC proliferation assay and/or HUVEC adhesion assay). Conditions: bound stated for the listed compounds.
Assay type: cell-based
Protocol: HUVEC Proliferation Assay
1. Coat 3 NUNC polystyrene 96 well plate (VWR, 62409-120; lids 62409-118) with vitronectin (purified internally), fibronectin (Collaborative Biomed 40008A) or fibrinogen (Calbiochem 341578) 50 ng/well in 50 μl PBS, 1 hr @ RT.
a. rinse with 5 mls PBS (no Ca, Mg)
3. Rinse vitronectin plates 1× in 200 μl PBS −/− and add 3000 cells per well in 100 ul growth medium (EBM2 (Clonetics, CC-3156)+EGM2 bullet kit (CC-4176)).
4. Incubate 24 hours at 37° C. to allow attachment.
5. Remove growth medium and add 100 μl growth medium+drugs (25 μM and down by five fold steps in DMSO-0.25% final DMSO concentration).
6. Incubate for 3 days changing media (+drugs).
7. Remove non-adherent cells on Friday with Raindance 12 well plate washer.
8. Wash twice with 200 μl PBS (+Mg & Ca).
9. Tap out excess liquid.
10. Freeze @ −70° C. for 30 minutes.
11. Thaw plate and add 150 μl CyQuant fluorescent dye (Molecular Probes C-7026).
12. Read after 4 minutes @ 485λ (excitation), 530λ (emission).
1. Coat 2 NUNC polystyrene 96 well plates (VWR, 62409-120; lids 62409-118) with 50 μl vitronectin (purified internally) at 50 ng/well in PBS (−Mg & Ca), for 1 hour @ 37° C.
2. Rinse with PBS & block with 150 μl PBS/1% BSA (Sigma A8918), 1 hour at @ 37° C.
3. Prepare drug dilutions:
a. 400 fold concentrate in 100% DMSO
b. 0.25% DMSO [assay]final
c. 10 mM & down (25 μMfinal & down)
d. dilute 1 μl of 400 fold conc into 200 μl adhesion media
a. rinse with 5 ml PBS (no Ca, Mg)
6. Rinse blocking buffer from assay plate and add 50 μl of drug dilutions.
7. Resuspend cells in adhesion media, count and add 2e4 cells/well in 50 μl (4e5/ml).
8. Incubate 60 minutes @ 37° C.
9. Remove non-adherent cells with Raindance 12 well plate washer.
10. Wash twice with 200 μl PBS (+Mg & Ca)
11. Tap out excess liquid.
12. Freeze @ −70° C. for 30 minutes to overnite.
13. Thaw plate and add 150 μl CyQuant fluorescent dye (Molecular Probes C-7026).
14. Read after 2-5 minutes @ 485λ (excitation), 530λ (emission).
Adhesion medium: Media 199 (which contains […] and 0.8 mM MgSO4), 0.5% BSA, 10 mM HEPES, 1 mM MgCl2, and 1 mM MnCl2
CN(C)c1ccc2c(c1)CN(C(=O)NCCCc1ccc3c(n1)NCCC3)CCC2CC(=O)O (centres unmarked) [Example 84, 2-{8-(Dimethylamino)-2-[N-(3-(1,2,3,4-tetrahydropyridino[2,3-b]pyridin-7-yl)propyl)carbamoyl]-1H,3H,4H,5H-benzo[e]azepin-5-yl}acetic acid] gave an IC50 of no more than 30 µM.
Compound O=C(O)CC1CCN(C(=O)NCCCCCNc2ccccn2)Cc2ccccc21 (centres unmarked) [Example 4, 2-(2-(N-(5-(2-pyridylamino)pent-1-yl)carbamoyl)-1H,3H,4H,5H-benzo[e]azapin-5-yl)acetic acid] has an IC50 of no more than 30 µM.
O=C(O)C[C@@H]1CCN(C(=O)NCCc2ccc3c(n2)NCCC3)Cc2ccccc21 [Example 54, 2-((5S)-2-(N-(3-(1,2,3,4-tetrahydropyridino(2.3-b)pyridin-7-yl)ethyl)carbamoyl)-1H,3H,4H,5H-benzo[e]azapin-5-yl)acetic acid] gave an IC50 of no more than 30 µM.
In the case of O=C(O)CC1CCN(C(=O)OCCCCNc2ccccn2)Cc2ccccc21 (centres unmarked) [Example 20, 2-(2-(4-(2-pyridylamino)but-1-oxycarbonyl)-1H,3H,4H,5H-benzo[e]azapin-5-yl)acetic acid], the IC50 is reported as no more than 30 µM.
Work on O=C(O)CC1CCN(C(=O)NCCCc2ccc3c(n2)NCCC3)Cc2cc(NS(=O)(=O)c3ccccc3)ccc21 (centres unmarked) [Example 82, 2-{8-[(Phenylsulfonyl)amino]-2-[N-(3-(1,2,3,4-tetrahydropyridino[2,3-b]pyridin-7-yl)propyl)carbamoyl]-1H,3H,4H,5H-benzo[e]azepin-5-yl}acetic acid] yielded an IC50 of no more than 30 µM.
For O=C(O)CC1CCN(S(=O)(=O)NCCCCNc2ccccn2)Cc2ccccc21 (centres unmarked) [Example 14, 2-(2-(((4-(2-pyridylamino)but-1-yl)amino)sulfonyl)-1H,3H,4H,5H-benzo[e]azapin-5-yl)acetic acid], the IC50 was no more than 30 µM.
Work on O=C(O)CC1CCN(CC(=O)NCCCNc2ccccn2)Cc2ccccc21 (centres unmarked) [Example 19, 2-(2-((N-(3-(2-pyridylamino)prop-1-yl)carbamoyl)methyl)-1H,3H,4H,5H-benzo[e]azapin-5-yl)acetic acid] yielded an IC50 of no more than 30 µM.
Compound Cc1cccc(NCCCCNC(=O)N2CCC(CC(=O)O)c3ccccc3C2)n1 (centres unmarked) [Example 9, 2-(2-(N-(4-((6-methyl-2-pyridyl)amino)but-1-yl)carbamoyl)-1H,3H,4H,5H-benzo[e]azapin-5-yl)acetic acid] has an IC50 of no more than 30 µM.
Work on O=C(O)CC1Cn2cc(C(=O)NCc3cnc4c(c3)CCCN4)nc2Cc2ccccc21 (centres unmarked) [Example 66, 2-{2-[N-(1,2,3,4-tetrahydropyridino [2,3-b]pyridin-6-ylmethyl)carbamoyl]-4H,5H,10H-benzo[d]imidazolo[1,2-a]azepin-5-yl}acetic acid] yielded an IC50 of no more than 30 µM.
In the case of CC(C)N(CCc1ccc2c(n1)NCCC2)C(=O)N1CCC(CC(=O)O)c2ccccc2C1 (centres unmarked) [Example 41, 2-{2-[N-(methylethyl)-N-(2-(1,2,3,4-tetrahydroyridino[2,3-b]pyridin-7-yl)ethyl)carbamoyl]-1H,3H,4H,5H-benzo[e]azepin-5-yl]acetic acid], the IC50 is reported as no more than 30 µM.
O=C(O)CC1CCN(C(=O)CNCCCCNc2ccccn2)Cc2ccccc21 (centres unmarked) [Example 18] gave an IC50 of no more than 30 µM.
O=C(O)CC1CCN(C(=O)Nc2cccc(CNc3ccccn3)c2)Cc2ccccc21 (centres unmarked) [Example 8, 2-(2-(N-(3-(2-pyridylamino)methylphenyl)carbamoyl)-1H,3H,4H,5H-benzo[e]azapin-5-yl)acetic acid] showed an IC50 of no more than 30 µM.
CS(=O)(=O)Nc1ccc2c(c1)CN(C(=O)NCCCc1ccc3c(n1)NCCC3)CCC2CC(=O)O (centres unmarked) [Example 81, 2-{8-[(Methylsulfonyl)amino]-2-[N-(3-(1,2,3,4-tetrahydropyridino[2,3-b]pyridin-7-yl)Propyl)carbamoyl]-1H,3H,4H,5H-benzo[e]azepin-5-yl}acetic acid] was tested, and the IC50 was no more than 30 µM.
O=C(O)CC1CCN(C(=O)NCCCc2ccc3c(n2)NCCC3)Cc2cc(Cl)ccc21 (centres unmarked) [Example 78, 2-{8-Chloro-2-[N-(3-(1,2,3,4-tetrahydropyridino[2,3-b]pyridin-7-yl)propyl)carbamoyl]-1H,3H,4H,5H-benzo[e]azepin-5-yl}acetic acid] was tested, and the IC50 was no more than 30 µM.
Compound O=C(O)C[C@H]1CCN(C(=O)NCCCc2ccc3c(n2)NCCC3)Cc2ccccc21 [Example 52, 2-((5R)-2-(N-(3-(1,2,3,4-tetrahydropyridino(2,3-b)pyridin-7-yl)prop-1-yl)carbamoyl)-1H,3H,4H,5H-benzo[e]azapin-5-yl)acetic acid] has an IC50 of no more than 30 µM.
With O=C(O)CC1CCN(C(=O)NCCCNc2ccccn2)Cc2ccccc21 (centres unmarked) [Example 2, 2-(2-(N-(3-(2-pyridylamino)propyl)carbamoyl)-1H,3H,4H,5H-benzo[e]azain-5-yl)acetic acid] the IC50 was no more than 30 µM.
CN(CCCCNc1ccccn1)C(=O)N1CCC(CC(=O)O)c2ccccc2C1 (centres unmarked) [Example 5, 2-(2-(N-methyl—N-(4-(2-pyridylamino)but-1-yl)carbamoyl)-1H,3H,4H,5H-benzo[e]azapin-5-yl)acetic acid] gave an IC50 of no more than 30 µM.
O=C(O)CC1CCN(C(=O)NC2CCC(Nc3ccccn3)CC2)Cc2ccccc21 (stereo not drawn) [Example 6, 2-(2-(N-(4-(2-pyridylamino)-trans-cyclohexyl)carbamoyl)-1H,3H,4H,5H-benzo[e]azapin-5-yl)acetic acid] gave an IC50 of no more than 30 µM.
Cc1ccnc(NCCCCNC(=O)N2CCC(CC(=O)O)c3ccccc3C2)c1 (centres unmarked) [2-[2-(N-{4-[(4-methyl-2-pyridyl)amino]butyl}carbamoyl)-1H, 3H, 4H, 5H-benzo[e]azepin-5-yl]acetic acid] gave an IC50 of no more than 30 µM.
With O=C(O)CC1CCN(S(=O)(=O)NCCCNc2ccccn2)Cc2ccccc21 (centres unmarked) [Example 15, 2-(2-(((3-(2-pyridylamino)prop-1-yl)amino)sulfonyl)-1H,3H,4H,5H-benzo[e]azapin-5-yl)acetic acid] the IC50 was no more than 30 µM.
O=C(O)CC1CCN(C(=O)CNCCCNc2ccccn2)Cc2ccccc21 (centres unmarked) [Example 17] gave an IC50 of no more than 30 µM.
Work on O=C(O)CCC1CCN(S(=O)(=O)NCCc2ccc3c(n2)NCCC3)Cc2ccccc21 (centres unmarked) [Example 47] yielded an IC50 of no more than 30 µM.
For COc1ccc2c(c1)CN(C(=O)NCCCCNc1ccccn1)CCC2CC(=O)O (centres unmarked) [Example 22, 2-(8-methoxy-2-(N-(4-(2-pyridylamino)but-1-yl)carbamoyl)-1H,3H,4H,5H-benzo[e]azaerhydroepin-5-yl)acetic acid], the IC50 was no more than 30 µM.
Compound COc1ccc2c(c1)CN(C(=O)NCCCc1ccc3c(n1)NCCC3)CCC2CC(=O)O (centres unmarked) [Example 71, 2-(8-methoxy-2-(N-(3-(1,2,3,4-tetrahydropyridino[2,3,b]pyridin-7-yl)propyl)carbamoyl)-1H,3H,4H,5H-benzo[e]azaperhydroepin-5-yl) acetic acid] has an IC50 of no more than 30 µM.
With O=C(O)CC1CCN(C(=O)NCCCc2ccc3c(n2)NCCC3)Cc2ccccc21 (centres unmarked) [Example 13, 2-(2-(N-(3-(1,2,3,4-tetrahydropyridino(2,3-b)pyridin-7-yl)prop-1-yl)carbamoyl)-1H,3H,4H,5H-benzo[e]azapin-5-yl)acetic acid] the IC50 was no more than 30 µM.
Work on Cc1cc(CCCNC(=O)N2CCC(CC(=O)O)c3ccccc3C2)nc2c1CCCN2 (centres unmarked) [2-(2-{N-[3-(5-methyl-1,2,3,4-tetrahydropyridino[2,3-b]pyridin-7-yl)propyl]carbamoyl}-1H, 3H, 4H, 5H-benzo[e]azepin-5-yl)acetic acid] yielded an IC50 of no more than 30 µM.
